Laboratory results reported in patent US20190169181A1, “FUMAGILLOL COMPOUNDS AND METHODS OF MAKING AND USING SAME” (Zafgen, Inc., priority 2016, published 2019).
pIC50: −log10 of the molar value.

Key:
recombinant human MetAP2 = target: T1, recombinant human MetAP2 (Homo sapiens, UniProt P50579); assay: Recombinant human MetAP2 enzyme inhibition assay (MAS peptide / amino acid oxidase / Amplex Ultrared readout); format: biochemical; settings: Flag tagged human recombinant MetAP2, 25 minutes at 25° C.
T1 construct: Flag; made in house
T1 sequence (P50579 whole entry): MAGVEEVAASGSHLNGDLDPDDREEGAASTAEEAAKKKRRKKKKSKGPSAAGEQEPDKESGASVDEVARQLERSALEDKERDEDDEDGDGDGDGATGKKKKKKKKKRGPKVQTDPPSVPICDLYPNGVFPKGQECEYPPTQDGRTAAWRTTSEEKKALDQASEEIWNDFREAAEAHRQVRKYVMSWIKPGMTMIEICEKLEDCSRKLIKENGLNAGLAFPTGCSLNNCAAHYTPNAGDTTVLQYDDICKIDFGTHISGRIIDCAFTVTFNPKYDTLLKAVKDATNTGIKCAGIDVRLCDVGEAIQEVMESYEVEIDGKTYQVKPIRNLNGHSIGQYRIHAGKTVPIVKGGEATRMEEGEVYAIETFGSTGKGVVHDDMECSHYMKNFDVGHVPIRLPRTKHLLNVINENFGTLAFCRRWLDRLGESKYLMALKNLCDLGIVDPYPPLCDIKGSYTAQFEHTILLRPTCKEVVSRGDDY

[1] = tested on: Diet Induced Obese (DIO) C57BL/6 mice; assay: 10 day DIO mouse model, weight loss vs. vehicle; format: in vivo; settings: 240 h; for inhibition in vivo at 0.3 mg/kg: 0.3 mpk sc once a day for 10 days
How it was run: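 Male DIO C57BL/6 mice on 60% fat diet, vehicle-acclimated 3 days, then given compound at 0.3 or 1.0 mg/kg SC (10% DMSO in water) once daily for 10 days. Body weight and food intake recorded daily; weight loss versus vehicle, with hematology and blood chemistry on Day 11.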

[2] = tested on: rat DIO model (Sprague Dawley rats on 45% High Fat diet); assay: 11 day rat DIO model, weight loss vs. vehicle; format: in vivo; settings: for Rat @ 0.3 mpk sc (%) weight loss vs. vehicle: 0.3 mpk sc once a day for 11 days
Source text: The objective of this study design is to investigate the efficacy of disclosed compounds in an 11 day rat DIO model used to screen compounds for pharmacologic efficacy on endpoints related to obesity and metabolism. Effects on body weight, food intake, hematology and blood chemistries were the primary readouts of this study design. Male Sprague Dawley rats, approximately 8 weeks of age, were ordered from a certified vendor and housed on irradiated corncob bedding in micro-isolator cages, on a 12-hour light-dark cycle (0700-1900) at 68-74° F. and 30-70% humidity. Rats were fed Research Diets D12451 (45% High Fat) and provided water ad libitum. Rats were received and housed in the facility for at least two or three weeks prior to start of test article administration. On Day −4 or −3, rats were randomized into study groups based on body weight and body weights were continued to be recorded daily for the duration of the study. Daily food intake was assessed starting on Study Day −2 by weighing the hopper including the food to avoid loss of food in transfer.
Compounds were formulated into a 100% DMSO stock (at 9 mg/mL) prior to the start, and further diluted into the target working concentration using the vehicle of 10% DMSO in water. Prior to test article administration, starting on Day −3 a dosing acclimation occurred with all animals receiving a subcutaneous injection of vehicle (10% DMSO) only for 3 days. Starting on Day 1, test compounds or vehicle were administered based on individual body weight, subcutaneously, once a day for 11 days. All animals were sacrificed on Day 11, approximately 2 hours following the final dosing on Day 11. After sacrifice, whole blood was collected and analyzed for hematology and blood chemistry parameters.
Compounds were tested for weight loss vs. vehicle at 0.3 and 1.0 mpk sc (mg per kg animal weight delivered subcutaneously), and the results are shown in Table 2 below.

Compound	pIC50 (recombinant human MetAP2)	inhibition in vivo at 0.3 mg/kg [1] [%]	Rat @ 0.3 mpk sc (%) weight loss vs. vehicle [2] [%]	inhibition in vivo at 1 mg/kg ([1]; 1.0 mpk sc once a day for 10 days) [%]	Rat @ 1.0 mpk sc (%) weight loss vs. vehicle ([2]; 1.0 mpk sc once a day for 11 days) [%]
CO[C@@H]1[C@H](OC(=O)N[C@H](c2cn(C[C@H]3CCCN3C)cn2)C(C)C)CC[C@]2(CO2)[C@H]1[C@@]1(C)O[C@@H]1CC=C(C)C [Example 16, (3R,4S,5S,6R)-5-methoxy-4-((2R,3R)-2-methyl-3-(3-methylbut-2-enyl)oxiran-2-yl)-1-oxaspiro[2.5]octan-6-yl (S)-2-methyl-1-(1-(((R)-1-methylpyrrolidin-2-yl)methyl)-1H-imidazol-4-yl)propylcarbamate]	6.30 to 7.30	6.6	2.8		
CO[C@@H]1[C@H](OC(=O)N[C@@H](C)Cc2noc(=O)[nH]2)CC[C@]2(CO2)[C@H]1[C@@]1(C)O[C@@H]1CC=C(C)C [Example 28, (3R,4S,5S,6R)-5-methoxy-4-((2R,3R)-2-methyl-3-(3-methylbut-2-en-1-yl)oxiran-2-yl)-1-oxaspiro[2.5]octan-6-yl ((S)-1-(5-oxo-4,5-dihydro-1,2,4-oxadiazol-3-yl)propan-2-yl)carbamate]	> 7.30	-2.3	−1.4	4.2	
CO[C@@H]1[C@H](OC(=O)N[C@H](c2cn(C[C@@H]3CCN(C)C3)cn2)C(C)C)CC[C@]2(CO2)[C@H]1[C@@]1(C)O[C@@H]1CC=C(C)C [Example 13, (3R,4S,5S,6R)-5-methoxy-4-((2R,3R)-2-methyl-3-(3-methylbut-2-enyl)oxiran-2-yl)-1-oxaspiro[2.5]octan-6-yl (S)-2-methyl-1-(1-(((R)-1-methylpyrrolidin-3-yl)methyl)-1H-imidazol-4-yl)propylcarbamate]	6.30 to 7.30	8.2	11.5		22
